Source: publication PMC4450258 (Molecular neurobiology, 2014)

Target: T1, Sterol carrier protein 2 (SCP-2) (Homo sapiens, UniProt P22307)
T1 sequence (P22307 425-547): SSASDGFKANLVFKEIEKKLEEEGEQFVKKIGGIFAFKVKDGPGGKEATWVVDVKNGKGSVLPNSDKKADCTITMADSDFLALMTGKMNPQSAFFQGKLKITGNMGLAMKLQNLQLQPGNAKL
Assay type: biochemical

Structure (SMILES): CCCCC/C=C\C/C=C\C/C=C\C/C=C\CCCC(=O)NCCO [AEA, N-arachidonylethanolamine]
- inhibition of recombinant SCP-2-mediated [14C]cholesterol transfer from SUVs to: ~ 50 µM
